# Assay results from patent US6808904B2, “Herbicide-tolerant protox genes produced by DNA shuffling” (priority 1994, dated 2004).
# Key:
# Assay in all cases: Bacterial cross-tolerance testing of resistant mutant plasmids in SASX38, Arabidopsis protox-1 mutants
# Type in all cases: cell-based
# Design in all cases: key to Cross tolerance, AraC-1Val / Cross tolerance, AraC-2Cys / Cross tolerance, AraC-1Thr / Cross tolerance, AraC-3Thr / Cross tolerance, AraC-2Ile / Cross tolerance, AraC-2Cys + AraC425Ser: + = 10× or more tolerant than WT; ++ = 100× or more tolerant than WT; − = no cross tolerance
# [1] = target: T1, plant protox mutants (Arabidopsis protox-1) in SASX38 (Arabidopsis thaliana, UniProt P55826, A220T/T56K); conditions: mutant AraC-1Thr vs WT plasmid in SASX38
# T1 construct: contains only 17 amino acids of the putative chloroplast transit peptide; expressed in transfected cells; host or cells: E. coli SASX38 (hemG mutant)
# T1 sequence (P55826 41-537 T56K/A220T): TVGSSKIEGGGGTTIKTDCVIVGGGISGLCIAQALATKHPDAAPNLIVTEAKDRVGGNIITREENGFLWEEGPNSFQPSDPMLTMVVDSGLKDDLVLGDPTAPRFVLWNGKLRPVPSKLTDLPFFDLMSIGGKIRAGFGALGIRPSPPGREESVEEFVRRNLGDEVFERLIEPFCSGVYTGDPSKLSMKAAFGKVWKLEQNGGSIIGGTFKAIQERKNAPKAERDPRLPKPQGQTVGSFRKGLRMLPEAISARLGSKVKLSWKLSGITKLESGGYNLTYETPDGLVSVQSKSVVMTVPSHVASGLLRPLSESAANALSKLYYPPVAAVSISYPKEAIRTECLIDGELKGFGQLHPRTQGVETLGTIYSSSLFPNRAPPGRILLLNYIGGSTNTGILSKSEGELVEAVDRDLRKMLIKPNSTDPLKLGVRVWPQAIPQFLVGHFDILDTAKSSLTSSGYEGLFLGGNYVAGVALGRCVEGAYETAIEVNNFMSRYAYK
# Description: (§1) Resistant mutant plasmids, originally identified based on resistance against a single protox inhibitory herbicide, were tested against a spectrum of other protox inhibiting compounds. For this test, the SASX38 strain containing the wild-type plasmid is plated on a range of concentrations of each compound to determine the lethal concentration for each one. Resistant mutant plasmids in SASX38 are plated and scored for the ability to survive on a concentration of each compound at least 10 fold higher than the concentration that is lethal to the SASX38 strain containing the wild-type plasmid.
# [2] = target: T2, plant protox mutants (Arabidopsis protox-1) in SASX38 (Arabidopsis thaliana, UniProt P55826, A220L/T56K/Y426L); conditions: mutant AraC-1Leu + AraC-2Leu
# T2 construct: contains only 17 amino acids of the putative chloroplast transit peptide; expressed in transfected cells; host or cells: E. coli SASX38 (hemG mutant)
# T2 sequence (P55826 41-537 T56K/A220L/Y426L): as the sequence (P55826 41-537 T56K/A220T) above, with T180L, Y386L counted along it
# Description: as §1
# [3] = target: T3, plant protox mutants (Arabidopsis protox-1) in SASX38 (Arabidopsis thaliana, UniProt P55826, N425S/T56K/Y426C); conditions: mutant AraC-2Cys + AraC425Ser
# T3 construct: contains only 17 amino acids of the putative chloroplast transit peptide; expressed in transfected cells; host or cells: E. coli SASX38 (hemG mutant)
# T3 sequence (P55826 41-537 T56K/N425S/Y426C): as the sequence (P55826 41-537 T56K/A220T) above, with T180A, N385S, Y386C counted along it
# Description: as §1
# [4] = target: T4, plant protox mutants (Arabidopsis protox-1) in SASX38 (Arabidopsis thaliana, UniProt P55826, N425S/T56K/Y426L); conditions: mutant AraC-2Leu + AraC425Ser
# T4 construct: contains only 17 amino acids of the putative chloroplast transit peptide; expressed in transfected cells; host or cells: E. coli SASX38 (hemG mutant)
# T4 sequence (P55826 41-537 T56K/N425S/Y426L): as the sequence (P55826 41-537 T56K/A220T) above, with T180A, N385S, Y386L counted along it
# Description: as §1
# [5] = target: T5, plant protox mutants (Arabidopsis protox-1) in SASX38 (Arabidopsis thaliana, UniProt P55826, A220L/T56K); conditions: mutant AraC-1Leu
# T5 construct: contains only 17 amino acids of the putative chloroplast transit peptide; expressed in transfected cells; host or cells: E. coli SASX38 (hemG mutant)
# T5 sequence (P55826 41-537 T56K/A220L): as the sequence (P55826 41-537 T56K/A220T) above, with T180L counted along it
# Description: as §1
# [6] = target: T6, plant protox mutants (Arabidopsis protox-1) in SASX38 (Arabidopsis thaliana, UniProt P55826, S305L/T56K/Y426I); conditions: mutant AraC-2Ile + AraC305Leu
# T6 construct: contains only 17 amino acids of the putative chloroplast transit peptide; expressed in transfected cells; host or cells: E. coli SASX38 (hemG mutant)
# T6 sequence (P55826 41-537 T56K/S305L/Y426I): as the sequence (P55826 41-537 T56K/A220T) above, with T180A, S265L, Y386I counted along it
# Description: as §1
# [7] = target: T7, plant protox mutants (Arabidopsis protox-1) in SASX38 (Arabidopsis thaliana, UniProt P55826, A220L/T56K/Y426M); conditions: mutant AraC-1Leu + AraC-2Met
# T7 construct: contains only 17 amino acids of the putative chloroplast transit peptide; expressed in transfected cells; host or cells: E. coli SASX38 (hemG mutant)
# T7 sequence (P55826 41-537 T56K/A220L/Y426M): as the sequence (P55826 41-537 T56K/A220T) above, with T180L, Y386M counted along it
# Description: as §1
# [8] = target: T8, plant protox mutants (Arabidopsis protox-1) in SASX38 (Arabidopsis thaliana, UniProt P55826, A220V/T56K); conditions: mutant AraC-1Val vs WT plasmid in SASX38
# T8 construct: contains only 17 amino acids of the putative chloroplast transit peptide; expressed in transfected cells; host or cells: E. coli SASX38 (hemG mutant)
# T8 sequence (P55826 41-537 T56K/A220V): as the sequence (P55826 41-537 T56K/A220T) above, with T180V counted along it
# Description: as §1
# [9] = target: T9, plant protox mutants (Arabidopsis protox-1) in SASX38 (Arabidopsis thaliana, UniProt P55826, T56K/Y426C); conditions: mutant AraC-2Cys vs WT plasmid in SASX38
# T9 construct: contains only 17 amino acids of the putative chloroplast transit peptide; expressed in transfected cells; host or cells: E. coli SASX38 (hemG mutant)
# T9 sequence (P55826 41-537 T56K/Y426C): as the sequence (P55826 41-537 T56K/A220T) above, with T180A, Y386C counted along it
# Description: as §1
# [10] = system: plant protox mutants (Arabidopsis protox-1) in SASX38; conditions: mutant AraC-3Thr vs WT plasmid in SASX38
# Description: as §1
smiles,measurement,setting,value
CCOC(=O)COC(=O)c1cc(Oc2ccc(C(F)(F)F)cc2Cl)ccc1[N+](=O)[O-] [IV],"Cross tolerance, AraC-1Thr",[1],++ (++ = 100× or more tolerant than WT)
same,"Cross tolerance, AraC-1Leu + AraC-2Leu",[2],++ (++ = 100× or more tolerant than WT)
same,"Cross tolerance, AraC-2Cys + AraC425Ser",[3],−
same,"Cross tolerance, AraC-2Leu + AraC425Ser",[4],+ (+ = 10× or more tolerant than WT)
same,"Cross tolerance, AraC-1Leu",[5],++ (++ = 100× or more tolerant than WT)
same,"Cross tolerance, AraC-2Ile + AraC305Leu",[6],+ (+ = 10× or more tolerant than WT)
same,"Cross tolerance, AraC-1Leu + AraC-2Met",[7],+ (+ = 10× or more tolerant than WT)
same,"Cross tolerance, AraC-1Val",[8],++ (++ = 100× or more tolerant than WT)
same,"Cross tolerance, AraC-2Cys",[9],−
same,"Cross tolerance, AraC-3Thr",[10],++ (++ = 100× or more tolerant than WT)
COC(=O)CSc1cc(N=c2sc(=O)n3n2CCCC3)c(F)cc1Cl [VIIa],"Cross tolerance, AraC-1Thr",[1],+ (+ = 10× or more tolerant than WT)
same,"Cross tolerance, AraC-1Leu + AraC-2Leu",[2],++ (++ = 100× or more tolerant than WT)
same,"Cross tolerance, AraC-2Cys + AraC425Ser",[3],++ (++ = 100× or more tolerant than WT)
same,"Cross tolerance, AraC-2Leu + AraC425Ser",[4],++ (++ = 100× or more tolerant than WT)
same,"Cross tolerance, AraC-1Leu",[5],++ (++ = 100× or more tolerant than WT)
same,"Cross tolerance, AraC-2Ile + AraC305Leu",[6],++ (++ = 100× or more tolerant than WT)
same,"Cross tolerance, AraC-1Leu + AraC-2Met",[7],++ (++ = 100× or more tolerant than WT)
same,"Cross tolerance, AraC-1Val",[8],+ (+ = 10× or more tolerant than WT)
same,"Cross tolerance, AraC-2Cys",[9],+ (+ = 10× or more tolerant than WT)
same,"Cross tolerance, AraC-3Thr",[10],−
CC(C)OC(=O)c1cc(-n2c(=O)cc(C(F)(F)F)n(C)c2=O)ccc1Cl [XI],"Cross tolerance, AraC-1Thr",[1],+ (+ = 10× or more tolerant than WT)
same,"Cross tolerance, AraC-1Leu + AraC-2Leu",[2],++ (++ = 100× or more tolerant than WT)
same,"Cross tolerance, AraC-2Cys + AraC425Ser",[3],++ (++ = 100× or more tolerant than WT)
same,"Cross tolerance, AraC-2Leu + AraC425Ser",[4],++ (++ = 100× or more tolerant than WT)
same,"Cross tolerance, AraC-1Leu",[5],++ (++ = 100× or more tolerant than WT)
same,"Cross tolerance, AraC-2Ile + AraC305Leu",[6],++ (++ = 100× or more tolerant than WT)
same,"Cross tolerance, AraC-1Leu + AraC-2Met",[7],++ (++ = 100× or more tolerant than WT)
same,"Cross tolerance, AraC-1Val",[8],−
same,"Cross tolerance, AraC-2Cys",[9],+ (+ = 10× or more tolerant than WT)
same,"Cross tolerance, AraC-3Thr",[10],++ (++ = 100× or more tolerant than WT)
CCCCCOC(=O)COc1cc(N2C(=O)C3=C(CCCC3)C2=O)c(F)cc1Cl [XIV],"Cross tolerance, AraC-1Thr",[1],+ (+ = 10× or more tolerant than WT)
same,"Cross tolerance, AraC-1Leu + AraC-2Leu",[2],++ (++ = 100× or more tolerant than WT)
same,"Cross tolerance, AraC-2Cys + AraC425Ser",[3],−
same,"Cross tolerance, AraC-2Leu + AraC425Ser",[4],++ (++ = 100× or more tolerant than WT)
same,"Cross tolerance, AraC-1Leu",[5],++ (++ = 100× or more tolerant than WT)
same,"Cross tolerance, AraC-2Ile + AraC305Leu",[6],++ (++ = 100× or more tolerant than WT)
same,"Cross tolerance, AraC-1Leu + AraC-2Met",[7],++ (++ = 100× or more tolerant than WT)
same,"Cross tolerance, AraC-1Val",[8],+ (+ = 10× or more tolerant than WT)
same,"Cross tolerance, AraC-2Cys",[9],−
same,"Cross tolerance, AraC-3Thr",[10],+ (+ = 10× or more tolerant than WT)
